Experimental data published in publication PMC6702328, “A VDAC1-Derived N-Terminal Peptide Inhibits Mutant SOD1-VDAC1 Interactions and Toxicity in the SOD1 Model of ALS” (Frontiers in Cellular Neuroscience, 2019).

How the values were obtained:
[1] = system: SOD1^G93A-expressing mESC-derived MNs; assay: Neurite outgrowth of mESC-derived motor neurons; assay type: cell-based, mouse; details: 10 μM, first 24 h; mean ± SEM n = 3, P < 0.05
Experimental: (§1) This cell line carries green fluorescent protein (GFP) under the control of the promoter for the motor neuron (MN)-specific transcription factor HB9 (HB9:GFP cells) ([Di Giorgio et al., 2007]). We used the SOD1^G93A mESC line to derive GFP^+ MNs.
(§2) Motor neuron differentiation was induced as described previously with some modifications ([Wichterle et al., 2002]). Cells were cultured in ADFNB medium composed of advanced D-MEM/F12:Neurobasal (1:1), 0.1 mM 2-mercaptoethanol, and GlutaMAX supplement, B27 supplement, and N2 supplement all from Invitrogen, to form embryoid bodies (EBs), and supplemented with 0.1 μM of retinoic acid (RA, Sigma), as well as 0.5 μM of sonic hedgehog (Shh) agonist Ag1.3 (Curis) every second day.
For an in vitro differentiation assay, EBs were enzymatically dissociated after 7 days in culture with TrypLE Express (Gibco) and seeded on 0.01% poly-l-ornithine (Sigma) pre-coated coverslips followed by laminin (10 μg/ml, Sigma). […]
SOD1^G93A-expressing mESC-derived MNs were incubated with the indicated concentrations of (1-20)N-Ter-Antp peptide for 1–4 days following initiation of final differentiation. […] GFP fluorescence indicates the expression of the motor neuron-specific transcription factor HB9. […] (E) Quantification of MNs survival. For all assays, results are expressed as the mean ± SEM (n = 3). ^*P < 0.05.

U-87MG cells = assay: Cell death, PI staining and flow cytometry, U-87MG; assay type: cell-based, human; details: 5 h, serum-free medium, 37°C
Experimental: (§3) NSC-34 cells, a mouse motor neuron-like hybrid cell line, the A549 human lung adenocarcinoma and U-87MG human glioblastoma cell lines were incubated with the (1-26)N-Ter-Antp, D-(15-26)N-Ter-Antp, (1-20)N-Ter-Antp, (5-20)N-Ter-Antp, or (10-20)N-Ter-Antp peptides in the appropriate serum-free growth medium for 5 h at 37°C. Cells were harvested, and analyzed for cell death using propidium iodide (PI) staining and flow cytometry. For XTT, the CellTiter 96 AQueous one-solution cell proliferation assay was used to follow cell viability as described previously ([Leyton-Jaimes et al., 2016]).
(§4) NSC-34 (A), U-87MG (B), or A549 (C) cells were incubated with the indicated concentrations of (1-26)N-Ter-Antp (∙), D-(15-26) (19-26)N-Ter-Antp (▲), (1-20)N-Ter-Antp (∘), (5-20)N-Ter-Antp (□) or (10-20)N-Ter-Antp (◆) peptide for 5 h. Cell death was analyzed using PI staining and flow cytometry. […] Cell viability analysis was performed with the CellTiter 96 AQueous one-solution cell proliferation assay with ELISA at 490 nm. […] The significance of quantitative analysis of triplicates of different biological repeats (n = 3) was performed by Student’s t-test; ^∗∗P < 0.01. […] Twenty-four hours post-transfection, the cells were incubated for 5 h with (10-20)N-Ter-Antp peptide (20 μM) and then analyzed for apoptosis using acridine orange and ethidium bromide staining, as described previously ([McGahon et al., 1995]). Fluorescence microscopy images were analyzed and about 100 to 300 cells were counted for each treatment in representative microscopic fields. The significance of quantitative analysis of triplicates of different biological repeats (n = 3) was performed by one-way Anova; ^∗∗P < 0.01.

[2] = system: SOD1^G93A-expressing mESC-derived MNs; assay: Survival of mESC-derived motor neurons; assay type: cell-based, mouse
Experimental: as §1, §2
For an in vitro differentiation assay, EBs were enzymatically dissociated after 7 days in culture with TrypLE Express (Gibco) and seeded on 0.01% poly-l-ornithine (Sigma) pre-coated coverslips followed by laminin (10 μg/ml, Sigma). Cells (5 × 10^4) were seeded on coverslip in 24-well plates with ADFNB cell medium supplemented with of Ciliary neurotrophic factor (10 ng/ml, CNTF) and Glial cell-derived neurotrophic factor (GDNF; Miltenyi Biotec). During plating, 1-20N-Ter-Antp VDAC1-peptide was added to the cultures. Half of the medium was replaced with fresh medium every second day and at the indicated time points. The cultures were fixed in 4% paraformaldehyde in PBS.
Stereological estimation of neurite lengths to evaluate neurite outgrowth in cultured cells was carried out as described previously ([Ronn et al., 2000]). The total neuritic length per cell was estimated by counting the number of GFP^+ soma and neurite intersections with test lines of an unbiased counting frame superimposed on images of cell cultures obtained using a 20× objective (NA 0.75) of a Nikon Eclipse E800 epifluorescence microscope equipped with a Nikon DXM1200F CCD camera. The absolute length, L, of neurites per cell was subsequently estimated from the number of neurite intersections, I, per cell by means of the equation L = (πd/2)I describing the relationship between the number of neurite intersections and the vertical distance, d, between the test lines used.
SOD1^G93A-expressing mESC-derived MNs were incubated with the indicated concentrations of (1-20)N-Ter-Antp peptide for 1–4 days following initiation of final differentiation. […] Scale bar, 100 μm. […] GFP fluorescence indicates the expression of the motor neuron-specific transcription factor HB9. Gross cellular morphology of surviving MNs remained unaffected by the (1-20)N-Ter-Antp peptide. Scale bar, 25 μm. (E) Quantification of MNs survival. For all assays, results are expressed as the mean ± SEM (n = 3). ^*P < 0.05.

[3] = system: NSC-34 cells transfected to express human mutant SOD1^G93A; assay: Rescue of mutant SOD1^G93A toxicity, cell viability (XTT / CellTiter 96 AQueous); assay type: cell-based, mouse; details: NSC-34 cells expressing SOD1^G93A, increasing peptide concentrations, 5 h, XTT assay; n = 3
Experimental: as §3, §4
Cell viability was quantified using the XTT assay and apoptosis using acridine orange and ethidium bromide staining. […] Importantly, this effect was observed using the three non-cell death-inducing VDAC1-derived N-terminal peptides, i.e., the (1-20)-N-Ter-Antp, (5-20)-N-Ter-Antp and (10-20)-N-Ter-Antp peptides.

NSC-34 cells = assay: Cell death, PI staining and flow cytometry, NSC-34; assay type: cell-based, mouse; details: 5 h, serum-free medium, 37°C
Experimental: as §3, §4

A549 cells = assay: Cell death, PI staining and flow cytometry, A549; assay type: cell-based, human; details: 5 h, serum-free medium, 37°C
Experimental: as §3, §4

[4] = system: SH-SY5Y cells expressing SOD1^G93A or SOD1^G37R; assay: Co-localization of misfolded SOD1 with VDAC1, immunostaining and confocal microscopy; assay type: cell-based; details: peptide 20 μM, 5 h, 24 h post-transfection; anti-VDAC1 and B8H10 antibodies
Experimental: For immunostaining, SH-SY5Y cells (4.5 × 10^4) were grown on sterilized coverslips in 24-well plates. 30 h post-transfection, cells were fixed using 4% paraformaldehyde (PFA; diluted in PBS) for 15 min, and then washed 3 times with PBS (5 min each wash). Cells were then permeabilized with 0.3% Triton X-100 in PBS for 5 min followed by washing with PBS. Cells were then blocked for 1 h with blocking buffer (1% BSA free fatty acids diluted in PBS). Anti-VDAC1 polyclonal antibody (ab15895) and mouse anti misfolded SOD1 (B8H10, Medimabs) were incubated at room temperature for 1–2 h in a buffer of 1% BSA free fatty acids and 0.3% Triton-X100 in PBS. Following incubation with primary antibodies, cells were washed with PBS and incubated with fluorescent conjugated secondary Alexa Flour 488 anti-rabbit and Alexa flour 647 anti-mouse antibodies. The coverslips were carefully dried and mounted on slides using Immumount (Immumount^TM, Thermo). After overnight drying, images were acquired on an Olympus IX81 confocal microscope.
Twenty-four hours post-transfection, the cells were incubated for 5 h with (10-20)N-Ter-Antp peptide (20 μM) and then analyzed for co-localization using a confocal microscope. […] Scale bar, 10 μm.

[5] = system: SH-SY5Y cells expressing mutant SOD1^G93A; assay: Apoptosis, acridine orange/ethidium bromide staining, SOD1^G93A; assay type: cell-based; details: peptide 20 μM, 5 h, 24 h post-transfection, n = 3
Experimental: (§5) Apoptotic cell death was also analyzed using Acridine Orange (AcOr)/ethidium bromide (EtBr) staining ([McGahon et al., 1995]). Cells in 24-well plates were washed with 200 μl PBS and 10 μl of a solution containing […] in PBS was added. The cells were then visualized by fluorescence microscopy (ZOE fluorescence cell imager, Bio-Rad), images were recorded and cells at early and late apoptotic stages were counted.
as §4, with “The significance of quantitative analysis of triplicates of different biological repeats (n = 3) was performed by one-way Anova; ^∗∗P < 0.01.” left out

[6] = system: SH-SY5Y cells expressing mutant SOD1^G37R; assay: Apoptosis, acridine orange/ethidium bromide staining, SOD1^G37R; assay type: cell-based; details: peptide 20 μM, 5 h, 24 h post-transfection, n = 3
Experimental: as §5
as §4, with “The significance of quantitative analysis of triplicates of different biological repeats (n = 3) was performed by one-way Anova; ^∗∗P < 0.01.” left out

| Substance | MN neurite outgrowth [1] | Cell death induction in U-87MG cells (U-87MG cells) | improvement of survival of SOD1^G93A-expressing MNs (fold) ([2]; 10 μM, 96 h) | number of surviving MNs over the course of final differentiation ([2]; 10 μM, 96 h, n = 3, P < 0.05) | number of MNs present in the culture ([2]; 5 and 10 μM, 24 h after initiation of differentiation, n = 3, P < 0.05) | optimal peptide concentration for neurite outgrowth and survival ([2]; SOD1^G93A-expressing mESC-derived MNs) [µM] | Effect on SOD1^G93A toxicity (cell viability) [3] | Cell death induction in NSC-34 cells (NSC-34 cells) | Cell death induction in A549 cells (A549 cells) | Co-localization of misfolded SOD1 with VDAC1 [4] | decrease of SOD1^G93A-mediated cell death [5] [%] | decrease of SOD1^G37R-mediated cell death [6] [%] |
| --- | --- | --- | --- | --- | --- | --- | --- | --- | --- | --- | --- | --- |
| 1-MAVPPTYADLGKSARDVFTK-20-RQIKIWFQNRRMKWKK [(1-20)-N-Ter-Antp, like (1-26)-N-Ter-Antp but shortened by six amino acids at the C-terminus] | significantly increased MN neurite outgrowth | could not induce cell death | twofold | significantly increased the number of surviving MNs | significantly increased the number of MNs present in the culture | 10 | reduced the toxic effect of SOD1^G93A in a concentration-dependent manner | could not induce cell death | could not induce cell death |  |  |  |
| 10-LGKSARDVFTK-20- RQIKIWFQNRRMKWKK [(10-20)-N-Ter-Antp, like (1-20)-N-Ter-Antp but shortened by nine amino acids at the N-terminus] |  | could not induce cell death |  |  |  |  | reduced the toxic effect of SOD1^G93A in a concentration-dependent manner | could not induce cell death | could not induce cell death | co-localization was greatly eliminated | 68 | 81 |
